In US6960321B1, “Sterilization of fire sprinkler systems” (priority 1999, dated 2005):

Tests used:
Low Nutrient Bacteria = assay: MICkit microbiological testing of pipe water and scrapings, low nutrient bacteria; format: cell-based
Description: (§1) One end cap of the pipe was removed and the contaminated water poured out of the pipe and a pre-sterilization sample of the water and scrapings from the interior pipe wall were taken under sterile conditions for microbiological testing employing a MICkit™ supplied by Bioindustrial Technologies, Inc., Georgetown, Tex. The microbiological samples were incubated for three weeks at 35° C. and observed for microbiological growth.
(§2) Steam was then injected into the test pipe by opening the ball valve slowly with the steam pressure at 30 lbs pressure (135° C.). The temperature at the end of the test pipe rapidly rose to 94° C. and then appeared to remain nearly constant. The ball valve was then closed and the pipe cooled to room temperature. The condensate water and scrapings from the interior of the test pipe were collected by removal of the pipe from the adapter under sterile conditions. The samples so collected were microbiologically tested as above.
(§3) The end cap was then replaced with a ball valve and the steam sterilization was repeated. The ball valve at the end of the pipe was opened slightly to allow condensate and live steam to escape. The temperature at the end of the pipe rapidly rose to 110° C. The test was terminated by closing the ball valves and allowing the pipe to cool to room temperature. The pipe was again sampled for microbiological testing as above.
(§4) Microbiologically contaminated water was obtained from a “dead end” water feed-line to a fire protection system and was assayed microbiologically using the MICkit™ giving the following results after only 2 days of incubation at 35° C.:
(§5) The steam was allowed to slowly enter the pipe by regulating the input ball valve with the outlet ball valve open. Steam flowed through the pipe, heating it rapidly to near 100° C. The outlet ball valve was then nearly closed allowing the steam pressure in the pipe to increase. The temperature at the end of the pipe reached 135° C. and was kept there for five minutes. The inlet and outlet ball valves were closed and the pipe with the valves closed was removed and cooled in a stream of water. A small amount of sterile water (autoclaved at 121° C. for 15 minutes) was added to the sterilized pipe and the pipe raised, lowered and rotated to rinse the inside of the pipe system. The pipe was then opened and the water and scrapings from the side of the pipe were taken using sterile techniques for microbiological analysis.
(§6) The drained pipe was then sterilized as in Example 2 (per FIG. 2) using steam and a temperature of 135° C. by controlling the inlet and outlet ball valves. The ball valves at the ends of the pipe were then closed, the pipe removed from the test station and cooled with water. A small amount of sterile water was introduced and the inside of the pipe rinsed with it for several minutes. The pipe was then opened and the water and scrapings from the side of the pipe taken for microbiological analysis.

Iron Related Bacteria = assay: MICkit microbiological testing of pipe water and scrapings, iron related bacteria; format: cell-based
Description: as §1, §2, §3, §4, §5, §6

Acid Producing Bacteria = assay: MICkit microbiological testing of pipe water and scrapings, acid producing bacteria; format: cell-based
Description: as §1, §2, §3, §4, §5, §6

[1] = system: Sulfate Reducing Bacteria; assay: MICkit microbiological testing of pipe water and scrapings, sulfate reducing bacteria; format: cell-based
Description: as §1, §2, §3, §4, §5, §6

[2] = system: aerobic bacteria (colony forming units); assay: Aerobic plate count of pipe water and scrapings; format: cell-based
Description: Microbiologically contaminated water was obtained from a “dead end” water feed-line to a fire protection system and was assayed microbiologically using the […] giving the following results after only 2 days of incubation at 35° C.: [table] The steam was allowed to slowly enter the pipe by regulating the input ball valve with the outlet ball valve open. Steam flowed through the pipe, heating it rapidly to near 100° C. The outlet ball valve was then nearly closed allowing the steam pressure in the pipe to increase. The temperature at the end of the pipe reached 135° C. and was kept there for five minutes. The inlet and outlet ball valves were closed and the pipe with the valves closed was removed and cooled in a stream of water. A small amount of sterile water (autoclaved at 121° C. for 15 minutes) was added to the sterilized pipe and the pipe raised, lowered and rotated to rinse the inside of the pipe system. The pipe was then opened and the water and scrapings from the side of the pipe were taken using sterile techniques for microbiological analysis. The drained pipe was then sterilized as in Example 2 (per FIG. 2) using steam and a temperature of 135° C. by controlling the inlet and outlet ball valves. The ball valves at the ends of the pipe were then closed, the pipe removed from the test station and cooled with water. A small amount of sterile water was introduced and the inside of the pipe rinsed with it for several minutes. The pipe was then opened and the water and scrapings from the side of the pipe taken for microbiological analysis.

[3] = Analysis of residual sodium hypochlorite in water standing in iron pipe; format: physicochemical; settings: 50 ppm in potable tap water in iron pipe, ambient temperature, after 24 hours
Source text: The sterilized pipe from Example 2 was then filled with potable tap water containing 50 ppm sodium hypochlorite and allowed to stand at ambient temperature. The sodium hypochlorite, being an oxidizing agent, rapidly dissipated when in contact with the interior iron pipe surface.

[4] = Example 1, contaminated 1-inch sprinkler pipe, steam, pipe end 94° C., capped end, incubated three weeks at 35° C.
[5] = Example 1, steam repeated with outlet ball valve, pipe end 110° C., incubated three weeks at 35° C.
[6] = Example 2, new pipe infected with dead end water, steam 135° C. for five minutes, incubation 15 days
[7] = Example 4, chemically cleaned contaminated pipe, steam 135° C., after 15 days
[8] = Example 3, steam-sterilized pipe filled with potable tap water containing 50 ppm sodium hypochlorite, 24 hours plus seven days at ambient temperature
[9] = Example 5, sterilized pipe recontaminated 16 hours with dead end water, then tap water with 50 ppm sodium hypochlorite overnight, incubation 15 days

In the case of O [steam], the LNB (Low Nutrient Bacteria; [4]) is reported as “Negative”, the LNB (Low Nutrient Bacteria; [5]) is reported as “Negative” and the LNB (Low Nutrient Bacteria; [6]) is reported as “negative”. The LNB (Low Nutrient Bacteria; [7]) was “negative”, the IRB (Iron Related Bacteria; [4]) was “Negative” and the IRB (Iron Related Bacteria; [5]) was “Negative”. For the same compound, the IRB (Iron Related Bacteria; [6]) was “negative”, the IRB (Iron Related Bacteria; [7]) was “negative” and the APB (Acid Producing Bacteria; [4]) was “Negative”. The APB (Acid Producing Bacteria; [5]) was “Negative”, the APB (Acid Producing Bacteria; [6]) was “negative” and the APB (Acid Producing Bacteria; [7]) was “negative”. The SRB [1, 4] was “Negative”, the SRB [1, 5] was “Negative” and the SRB [1, 6] was “negative”. For the same compound, the SRB [1, 7] was “negative”, the APC [2, 6] was < 1 colony forming units per mil and the APC [2, 7] was < 1 colony forming units per mil.

In the case of OCl [sodium hypochlorite, reference compound], the LNB (Low Nutrient Bacteria; [8]) is reported as “negative”, the LNB (Low Nutrient Bacteria; [9]) is reported as “positive” and the IRB (Iron Related Bacteria; [8]) is reported as “negative”. The IRB (Iron Related Bacteria; [9]) was “negative”, the APB (Acid Producing Bacteria; [8]) was “negative” and the APB (Acid Producing Bacteria; [9]) was “negative”. For the same compound, the SRB [1, 8] was “negative”, the SRB [1, 9] was “negative” and the APC [2, 8] was < 1 colony forming units per mil. The APC [2, 9] was < 1 colony forming units per mil and the “sodium hypochlorite remaining in the water” value [3] was 0 ppm.
